Molecular target: G-protein coupled receptor 35 (Homo sapiens, UniProt Q9HC97)
Experiment: NF-kB luciferase suppression after PMA/ionomycin – cell-based, PMA/ionomycin inducer, set 2, SAR follow-up (AID 2792)

Sequence of G-protein coupled receptor 35 (Q9HC97 whole entry): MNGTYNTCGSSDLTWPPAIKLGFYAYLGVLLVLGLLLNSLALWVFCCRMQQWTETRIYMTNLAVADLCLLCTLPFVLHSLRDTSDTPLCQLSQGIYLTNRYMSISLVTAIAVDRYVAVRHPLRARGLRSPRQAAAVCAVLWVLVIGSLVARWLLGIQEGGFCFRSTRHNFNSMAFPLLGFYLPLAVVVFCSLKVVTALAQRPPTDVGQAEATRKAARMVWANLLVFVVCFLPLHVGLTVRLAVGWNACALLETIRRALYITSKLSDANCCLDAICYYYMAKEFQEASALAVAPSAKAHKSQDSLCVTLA

SMILES	IC50 [µM]
CCCn1c(SCC(=O)Nc2nc3c(s2)CCCC3)nc2c1c(=O)n(C)c(=O)n2C [2-(1,3-Dimethyl-2,6-dioxo-7-propyl-2,3,6,7-tetrahydro-1H-purin-8-ylsulfanyl)-N-(4,5,6,7-tetrahydro-benzothiazol-2-yl)-acetamide]	17.8
CCCCn1c(CN2CCN(c3cccc(Cl)c3)CC2)nc2c1c(=O)n(C)c(=O)n2C [MLS-0004183.0001]	3.51

Source: BindingDB's records for doi:10.7270/Q2C24TWT (Burnham Center For Chemical Genomics, 2010)
